experiment: physchem

Row | Compound | pKa
1 | O=C1NC2(CCc3ccccc32)C(=O)N1CCCN1CCN(c2ccccc2)CC1 (configuration not stated) | 10.5
2 | COc1ccccc1N1CCN(CCCN2C(=O)NC3(CCc4ccccc43)C2=O)CC1 (configuration not stated) | 9.6
3 | O=C1NC2(CCCc3ccccc32)C(=O)N1CCCN1CCN(c2cccc(Cl)c2)CC1 (configuration not stated) | 10.8
4 | O=C1NC2(CCCc3ccccc32)C(=O)N1CCCN1CCN(c2ccccc2)CC1 (configuration not stated) | 10.6
5 | COc1ccccc1N1CCN(CCCN2C(=O)NC3(CCCc4ccccc43)C2=O)CC1 (configuration not stated) | 10.3
6 | O=C1NC2(CCc3ccccc32)C(=O)N1CCCN1CCN(c2cccc(Cl)c2)CC1 (configuration not stated) | 10.3
7 | Cc1cn2c3c(=O)n(C)c(=O)n(C)c3nc2n1CCCN1CCN(c2cccc(Cl)c2Cl)CC1 | 7.61
8 | Cc1cn2c3c(=O)n(C)c(=O)n(C)c3nc2n1CCCN1CCc2ccccc2C1 | 8.66
9 | Cn1c(=O)c2c(nc3n(CCCN4CCc5ccccc5C4)c(-c4ccccc4)cn23)n(C)c1=O | 10.4
10 | O=C1NC2(CCc3ccccc32)C(=O)N1CCCN1CCN(c2cccc(C(F)(F)F)c2)CC1 (configuration not stated) | 9.96
11 | O=C1NC2(CCc3ccccc32)C(=O)N1CCCN1CCc2ccccc2C1 (configuration not stated) | 10.9
12 | O=C1NC2(CCCc3ccccc32)C(=O)N1CCCN1CCN(c2cccc(C(F)(F)F)c2)CC1 (configuration not stated) | 11.1
13 | O=C1NC2(CCCc3ccccc32)C(=O)N1CCCN1CCc2ccccc2C1 (configuration not stated) | 10.9
14 | COc1ccccc1N1CCN(CCCn2c(-c3ccccc3)cn3c4c(=O)n(C)c(=O)n(C)c4nc23)CC1 | 8.44
15 | COc1ccccc1N1CCN(CCCn2ccn3c4c(=O)n(C)c(=O)n(C)c4nc23)CC1 | 8.19
16 | Cn1c(=O)c2c(nc3n(CCCN4CCN(c5ccccc5)CC4)c(-c4ccccc4)cn23)n(C)c1=O | 8.79
17 | Cn1c(=O)c2c(nc3n(CCCN4CCN(c5cccc(Cl)c5)CC4)ccn23)n(C)c1=O | 8.35
18 | Cc1cn2c3c(=O)n(C)c(=O)n(C)c3nc2n1CCCN1CCN(c2cccc(Cl)c2)CC1 | 8.12
19 | Cn1c(=O)c2c(nc3n(CCCN4CCN(c5cccc(Cl)c5)CC4)c(-c4ccccc4)cn23)n(C)c1=O | 10.6
20 | Cn1c(=O)c2c(nc3n(CCCN4CCN(c5ccccc5)CC4)ccn23)n(C)c1=O | 8.09
21 | Cc1cn2c3c(=O)n(C)c(=O)n(C)c3nc2n1CCCN1CCN(c2ccccc2)CC1 | 7.55
22 | COc1ccccc1N1CCN(CCCn2c(C)cn3c4c(=O)n(C)c(=O)n(C)c4nc23)CC1 | 7.61

Reference: ChEMBL document CHEMBL3046911, “Serotonin transporter activity of imidazolidine-2,4-dione and imidazo[2,1-f]purine-2,4-dione derivatives in aspect of their acid-base properties” (Med Chem Res, 2012)
